Assay results: patent US9850247B2 (Almac Discovery Limited, priority 2013, dated 2017)

Tests used:
Wee-1 kinase = target: T1, Wee-1 kinase (Homo sapiens, UniProt P30291); experiment: Measurement of Wee-1 kinase activity (ADP-Glo luminescent kit); format: biochemical
T1 construct: purchased Invitrogen PV3817
Summary of the method: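 ADP-Glo luminescence reads ADP made over 1 h at RT, after an aliquot of 30 μM ATP and 2.0 μg/mL poly(Lys,Tyr 4:1) substrate. Before that, the kinase sat 30 min with inhibitor in Tris-HCl/MgCl2 buffer with BSA and DTT. IC50 came from regression of percent inhibition.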

[1] = test system: phospho-cdc2 (Tyr15) in HT-29 cells; experiment: Effect on phosphorylation of cdc2 at Tyr15, PathScan ELISA (Method 2); format: cell-based; settings: Homo sapiens, 8 h, eight hours incubation, read-out: HT29 pCDC2 method 2
Description: Method 2: Determining the Effect of Compounds on the phosphorylation of cdc2 at Tyr15
The colorectal cancer cell lines HT-29 and HCT-116 were purchased from the ATCC and routinely maintained in McCoy's Medium (Invitrogen) supplemented with 10% Foetal Calf Serum.
The cells were trypsinised from their growing vessel and counted, 100 μL of cell suspension containing 6000 cells was pipetted into black 96 well Co-star plates and incubated overnight to allow adherence to the surface at a temperature of 37° C. and an atmosphere of 5% CO2. Test compounds were formulated in DMSO and diluted in foetal calf serum supplemented medium. Incubating medium was removed by aspiration and diluted drug supplemented medium added to each well.
The plate was returned to the incubator for an additional eight hours at 37° C. and an atmosphere of 5% CO2. Post incubation, the drug supplemented medium was aspirated from each well and the cells were washed once in ice-cold phosphate buffered saline (PBS). 100 μL of cell lysis buffer (Cell Signalling Technologies #9803) containing 20 mM Tris, 150 mM NaCl, 1 mM EDTA, 1 mM EGTA, 1% Triton-X100, 2.5 mM sodium pyrophosphate, 1 mM glycerophosphate, 1 mM Na3VO4 and 1 μg/mL leupeptin was added to each well of the 96 well plate and incubated at 4° C. for 30 min. The samples on the plate were snap frozen at −80° C. until required. Immediately before the continuation of the assay, the sample plate was thawed and centrifuged at 4° C. for 10 min and the supernatant transferred to secondary tubes or 96 well plate.
Cell supernatant was mixed in a ratio of 1:1 with sample dilutent buffer and vortexed for one minute. 100 μL of diluted sample was pipetted into pre-coated plates containing a rabbit polyclonal antibody for phospho-cdc2 (Tyr15) (Cell Signalling Technologies PathScan kit #7176). The plate was sealed and incubated overnight at 4° C.
The plate seal was removed and the well contents aspirated, followed by 3×5 min washes with 200 μL of diluted wash buffer. Between each wash the plate was tapped firmly onto blotting paper to ensure the removal of all kit solution. 100 μL of kit detection antibody was added to each well and the plate re-sealed and incubated at 37° C. for 1 h. Post incubation the plate was washed and processed in a similar manner to that previously described.
100 μL of horseradish peroxidise-linked secondary antibody was added to each test well, the plate sealed and incubated for thirty minutes at 37° C. Post incubation, the plate was washed as previously stated, followed by the addition of 100 μL of 3,3′,5,5′ tetramethylbenzidine (TMB reagent). The plate was sealed and incubated at RT for 30 min.
100 μL of stop solution was added to each well and the underside of the plate wiped with a lint-free tissue, prior to spectrophotometric determination. Absorbance from each well was read at 450 nm within 30 min of the addition of the stop solution.
The percentage of phospho-cdc2 was calculated compared to DMSO control and plotted versus the concentration of inhibitor using GraphPad Prism. Data was fitted using non-linear regression analysis and IC50 values generated.

[2] = test system: phospho-cdc2 (Tyr15) in HT-29 cells; experiment: Effect on Cdc2 phosphorylation at Tyr15, Cell-Based ELISA Base Kit (Method 3); settings: Homo sapiens, HT-29, 8 h, eight hours incubation, normalized to total cdc2, read-out: HT29 pCDC2 method 3
Summary of the method: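 HT-29 cells were treated with compounds for 8 h at 37 °C, then fixed in 4% formaldehyde. Phospho-cdc2 (Tyr15) and total cdc2 were read by dual-fluorogenic cell-based ELISA at 600/450 nm. Phospho signal was normalized to total cdc2 and expressed as % of DMSO control, and EC50 came from non-linear regression.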

[3] = CLint estimates using human liver microsomes (Method 4); format: in vitro ADME; settings: pH 7.4, 1 μM compound, read-out: Mics - CLint (HLM CLint)
Summary of the method: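 Depletion measured by LC/MS/MS in MRM mode over 2–50 min after starting reactions with 1 mM NADPH. Incubations used 0.5 mg/mL human liver microsomal protein, 1 μM compound, 0.1% DMSO, pH 7.4 phosphate buffer, 37 °C. ln peak area plotted against time; the gradient gave t½ and intrinsic clearance.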

T1 sequence (P30291 whole entry): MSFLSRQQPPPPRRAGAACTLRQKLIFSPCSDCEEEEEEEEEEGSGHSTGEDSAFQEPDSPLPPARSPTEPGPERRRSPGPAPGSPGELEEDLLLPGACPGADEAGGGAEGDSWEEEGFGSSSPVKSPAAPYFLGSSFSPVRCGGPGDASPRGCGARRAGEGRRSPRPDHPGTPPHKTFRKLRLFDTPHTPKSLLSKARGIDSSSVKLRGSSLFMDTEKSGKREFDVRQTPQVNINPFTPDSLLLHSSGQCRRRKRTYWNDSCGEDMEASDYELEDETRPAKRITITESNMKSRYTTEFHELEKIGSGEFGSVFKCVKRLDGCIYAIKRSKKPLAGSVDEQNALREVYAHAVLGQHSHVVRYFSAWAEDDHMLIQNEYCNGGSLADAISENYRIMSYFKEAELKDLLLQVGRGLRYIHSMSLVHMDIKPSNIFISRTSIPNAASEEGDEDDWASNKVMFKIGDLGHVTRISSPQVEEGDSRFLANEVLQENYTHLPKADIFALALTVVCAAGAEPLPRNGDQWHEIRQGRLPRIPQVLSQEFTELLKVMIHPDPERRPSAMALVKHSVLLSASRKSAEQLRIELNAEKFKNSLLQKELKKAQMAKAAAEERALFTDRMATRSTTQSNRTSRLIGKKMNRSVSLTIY

SMILES	IC50 (Wee-1 kinase)	IC50 [1]	EC50 [2]	microsomal CLint at 1 μM [3]
CN1CN(c2c(Cl)cccc2Cl)C(=O)c2cnc(Nc3ccc(S(C)(=N)=O)cc3)nc21 (racemic) [Example 30, (rac)-3-(2,6-Dichlorophenyl)-1-methyl-7-((4-(S-methylsulfonimidoyl)phenyl)amino)-2,3-dihydropyrimido[4,5-d]pyrimidin-4(1H)-one]	10 to 100 nM	≥ 1000 nM		
[2H]C([2H])([2H])N1CN(c2c(Cl)cccc2Cl)C(=O)c2cnc(Nc3ccc(N4CCN[C@H](C)C4)cc3)nc21 [Example 78, (R)-3-(2,6-dichlorophenyl)-1-d3-methyl-7-((4-(3-methylpiperazin-1-yl)phenyl)amino)-2,3-dihydropyrimido[4,5-d]pyrimidin-4(1H)-one]	≤ 10 nM		100 to 1000 nM	≤ 15 µL/min/mg
C[C@@H]1CN(c2ccc(Nc3ncc4c(n3)N(C)CN(c3c(Cl)cccc3Cl)C4=O)cc2C(O)C(F)F)CCN1 (stereo partly drawn) [Example 134, 3-(2,6-dichlorophenyl)-7-((3-(2,2-difluoro-1-hydroxyethyl)-4-((R)-3-methylpiperazin-1-yl)phenyl)amino)-1-methyl-2,3-dihydropyrimido[4,5-d]pyrimidin-4(1H)-one]	≤ 10 nM		100 to 1000 nM	≤ 15 µL/min/mg
COC[C@H]1CN(c2ccc(Nc3ncc4c(n3)N(C)CN(c3c(Cl)cccc3Cl)C4=O)cc2C(O)C(F)F)CCN1 (single isomer, unassigned) [Example 162]	≤ 10 nM		100 to 1000 nM	15 to 50 µL/min/mg
CN1CCN(c2ccc(Nc3ncc4c(n3)N(C)CN(c3c(Cl)cccc3Cl)C4=O)cc2CO)CC1 [Example 33, 3-(2,6-dichlorophenyl)-7-((3-(hydroxymethyl)-4-(4-methylpiperazin-1-yl)phenyl)amino)-1-methyl-2,3-dihydropyrimido[4,5-d]pyrimidin-4(1H)-one]	≤ 10 nM		100 to 1000 nM	15 to 50 µL/min/mg
CNCc1cc(Nc2ncc3c(n2)N(C)CN(c2c(Cl)cccc2Cl)C3=O)ccc1N1C[C@@H](C)O[C@@H](C)C1 [Example 148, 3-(2,6-dichlorophenyl)-7-((4-((2S,6R)-2,6-dimethylmorpholino)-3-((methylamino)methyl)phenyl)amino)-1-methyl-2,3-dihydropyrimido[4,5-d]pyrimidin-4(1H)-one]	≤ 10 nM		100 to 1000 nM	15 to 50 µL/min/mg
CN(C)Cc1cc(Nc2ncc3c(n2)N(C)CN(c2c(Cl)cccc2Cl)C3=O)ccc1N1CCS(=O)(=O)CC1 [Example 149, 3-(2,6-dichlorophenyl)-7-((3-((dimethylamino)methyl)-4-(1,1-dioxidothiomorpholino)phenyl)amino)-1-methyl-2,3-dihydropyrimido[4,5-d]pyrimidin-4(1H)-one]	≤ 10 nM		100 to 1000 nM	≤ 15 µL/min/mg
CN1CN(c2c(Cl)cccc2Cl)C(=O)c2cnc(Nc3ccc(N4CCN(C)C(C)(C)C4)cc3)nc21 [Example 63, 3-(2,6-dichlorophenyl)-1-methyl-7-((4-(3,3,4-trimethylpiperazin-1-yl)phenyl)amino)-2,3-dihydropyrimido[4,5-d]pyrimidin-4(1H)-one]	≤ 10 nM		100 to 1000 nM	15 to 50 µL/min/mg
CN1CN(c2c(Cl)cccc2Cl)C(=O)c2cnc(Nc3ccc(N4CCNC[C@H]4CO)cc3)nc21 [Example 127, (S)-3-(2,6-dichlorophenyl)-7-((4-(2-(hydroxymethyl)piperazin-1-yl)phenyl)amino)-1-methyl-2,3-dihydropyrimido[4,5-d]pyrimidin-4(1H)-one]	≤ 10 nM		≥ 1000 nM	≤ 15 µL/min/mg
C[C@@H]1CN(c2ccc(Nc3ncc4c(n3)N(C)CN(c3c(Cl)cccc3Cl)C4=O)cc2CO)C[C@H](C)N1 [Example 158, 3-(2,6-dichlorophenyl)-7-((4-((3S,5R)-3,5-dimethylpiperazin-1-yl)-3-(hydroxymethyl)phenyl)amino)-1-methyl-2,3-dihydropyrimido[4,5-d]pyrimidin-4(1H)-one]	≤ 10 nM		100 to 1000 nM	≤ 15 µL/min/mg
CN(C)Cc1cc(Nc2ncc3c(n2)N(C)CN(c2c(Cl)cccc2Cl)C3=O)ccc1N1CCOCC1 [Example 154, 3-(2,6-dichlorophenyl)-7-((3-((dimethylamino)methyl)-4-morpholinophenyl)amino)-1-methyl-2,3-dihydropyrimido[4,5-d]pyrimidin-4(1H)-one]	≤ 10 nM		100 to 1000 nM	15 to 50 µL/min/mg
CN1CN(c2c(Cl)cccc2Cl)C(=O)c2cnc(Nc3ccc(C4CCNCC4)c(CO)c3)nc21 [Example 167, 3-(2,6-dichlorophenyl)-7-((3-(hydroxymethyl)-4-(piperidin-4-yl)phenyl)amino)-1-methyl-2,3-dihydropyrimido[4,5-d]pyrimidin-4(1H)-one]	≤ 10 nM		≥ 1000 nM	≤ 15 µL/min/mg
CN1CN(c2c(Cl)cccc2Cl)C(=O)c2cnc(Nc3ccc(N4CCNC(C)(C)C4)cc3)nc21 [Example 96, 3-(2,6-dichlorophenyl)-7-((4-(3,3-dimethylpiperazin-1-yl)phenyl)amino)-1-methyl-2,3-dihydropyrimido[4,5-d]pyrimidin-4(1H)-one]	≤ 10 nM		100 to 1000 nM	15 to 50 µL/min/mg
CNCc1cc(Nc2ncc3c(n2)N(C)CN(c2c(Cl)cccc2Cl)C3=O)ccc1N1CCCC1 [Example 137, 3-(2,6-dichlorophenyl)-1-methyl-7-((3-((methylamino)methyl)-4-(pyrrolidin-1-yl)phenyl)amino)-2,3-dihydropyrimido[4,5-d]pyrimidin-4(1H)-one]	10 to 100 nM		100 to 1000 nM	≥ 50 µL/min/mg
CC(C)N1CCN(c2ccc(Nc3ncc4c(n3)N(C)CN(c3c(F)cccc3Cl)C4=O)cc2CO)CC1 [Example 89, 3-(2-chloro-6-fluorophenyl)-7-((3-(hydroxymethyl)-4-(4-isopropylpiperazin-1-yl)phenyl)amino)-1-methyl-2,3-dihydropyrimido[4,5-d]pyrimidin-4(1H)-one]	≤ 10 nM		100 to 1000 nM	≤ 15 µL/min/mg
CN(C)CC(=O)N1CCN(c2ccc(Nc3ncc4c(n3)N(C)CN(c3c(Cl)cccc3Cl)C4=O)cc2CO)CC1 [Example 161, 3-(2,6-dichlorophenyl)-7-((4-(4-(2-(dimethylamino)acetyl)piperazin-1-yl)-3-(hydroxymethyl)phenyl)amino)-1-methyl-2,3-dihydropyrimido[4,5-d]pyrimidin-4(1H)-one]	≤ 10 nM		100 to 1000 nM	15 to 50 µL/min/mg
CCN1CCN(c2ccc(Nc3ncc4c(n3)N(C)CN(c3c(Cl)cccc3Cl)C4=O)cc2CO)CC1 [Example 72, 3-(2,6-dichlorophenyl)-7-((4-(4-ethylpiperazin-1-yl)-3-(hydroxymethyl)phenyl)amino)-1-methyl-2,3-dihydropyrimido[4,5-d]pyrimidin-4(1H)-one]	≤ 10 nM		100 to 1000 nM	≤ 15 µL/min/mg
